Data set [1] concerns the target Lysozyme C (Gallus gallus) (UniProt P00698). Nature of the data set: Inhibition of hen egg white lysozyme fibrillization assessed as diameter of granular aggregate at 2 x 10^-4 M after 15 days by atomic force microscopic analysis (reference value: 50 to 80 nm).
Data set [2] has the same target. Kind of data set: Inhibition of beta-sheet aggregation of hen egg white lysozyme at 2 x 10^-4 M after 15 days by FT-IR spectroscopic analysis.
Data set [3] shares this target. Kind of data set: Inhibition of hen egg white lysozyme fibrillization at 2 x 10^-4 M after 2 weeks by congo red dye-based UV/Vis spectroscopic analysis.
Data set [4] has the same target. Nature of the data set: Inhibition of hen egg white lysozyme fibrillization at 2 x 10^-4 M up to 100 hrs by Thioflavin T-based fluorescence assay.
The target is the same in data set [5]. Nature of the data set: Inhibition of beta-sheet aggregation of hen egg white lysozyme at 2 x 10^-4 M after 15 days by CD spectroscopic analysis.
Data set [6] has the same target. Nature of the data set: Binding affinity to hen egg white lysozyme at 2 x 10^-4 M by fluorescence spectroscopic analysis.
Data set [7] shares this target. Kind of data set: Inhibition of hen egg white lysozyme fibrillization at 2 x 10^-4 M after 15 days by congo red dye-based crossed polarized optical microscopic analysis.
Data set [8] shares this target. Nature of the data set: Binding affinity to hen egg white lysozyme assessed as formation of enzyme/compound complex formation at 2 x 10^-4 M by TCSPC spectroscopic analysis.
Data set [9] is described as follows: Cytotoxicity against neuronal cells (unknown origin) by MTT assay. The following applies: neuron. The format is cell-based.
Data set [10] deals with Lysozyme C (Gallus gallus) (UniProt P00698). Nature of the data set: Binding affinity to hen egg white lysozyme at 2 x 10^-4 M by UV/Vis spectroscopic analysis.

Consider 2 molecules from ChEMBL document CHEMBL3217545, “Synthesis and study of 2-acetyl amino-3-[4-(2-amino-5-sulfo-phenylazo)-phenyl]-propionic acid: a new class of inhibitor for hen egg white lysozyme amyloidogenesis” (Medchemcomm, 2013).

Activity calls are given as the source filed them. No cut-off for these calls is given here.

Chain of Lysozyme C (Gallus gallus) (P00698 whole entry): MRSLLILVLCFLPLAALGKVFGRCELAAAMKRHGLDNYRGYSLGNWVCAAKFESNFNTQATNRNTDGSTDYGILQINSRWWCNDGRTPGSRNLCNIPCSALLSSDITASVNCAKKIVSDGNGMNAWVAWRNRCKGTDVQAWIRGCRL

In the case of `CC(=O)N[C@@H](Cc1ccc(/N=N/c2cc(S(=O)(=O)O)ccc2N)cc1)C(=O)O`, the Activity in [1] is 100 nm; in data set [9] it was “Non-toxic”. Moreover, the inhibition entry in [2], in data set [3], in data set [4], in [5] and in data set [7] was “Active” in each case. In addition, the result in data set [6], in [8] and in data set [10] was Active.
Take `Nc1ccc(S(=O)(=O)O)cc1/N=N/c1ccc(C[C@H](NC(=O)C(F)(F)F)C(=O)O)cc1`: the values for the Activity in data set [1] and in data set [9] were 100 nm and “Non-toxic”, respectively. Besides, the inhibition entry in data set [2], in data set [3], in data set [4], in data set [5] and in data set [7] was “Active” in each case. The result in [6], in [8] and in data set [10] was Active.
